Where two headings read alike, the source gives them in different places.
Assays:
[1] = test system: caterpillars of the armyworm (Spodoptera frugiperda); assay: Spodoptera frugiperda test (SPODFR spray treatment); type: in vivo; conditions: Spodoptera frugiperda, foliar, read-out: effect in % (caterpillars killed)
From the text: Solvent: 78.0 parts by weight of acetone

[2] = log P determination by HPLC (EEC Directive 79/831 Annex V.A8); type: physicochemical
Protocol: The measurements were carried out using an Agilent 1100 LC system with a 50*4.6 Zorbax Eclipse C18 1.8 μm column (oven temperature 55° C., flow rate 2.0 ml/min).
The following mobile phases were used:
Mobile phase A: acetonitrile+1000 μl of formic acid/l
Mobile phase B: Millipore water+900 μl of formic acid/l

[3] = test system: larvae of the mustard beetle (Phaedon cochleariae); assay: Phaedon test (PHAECO spray treatment); conditions: Phaedon cochleariae, in Brassica rapa, foliar, read-out: effect in % (beetle larvae killed)
[4] = application rate 100 g/ha, maize leaf discs
[5] = reversed-phase HPLC, Zorbax Eclipse C18 column, determined by HPLC according to EEC Directive 79/831 Annex V.A8, read-out: log P

| SMILES | chromatographic logP ([2]; reversed-phase HPLC, Zorbax Eclipse C18 column, by HPLC according to EEC Directive 79/831 Annex V.A8, read-out: log P) | chromatographic logP [2, 5] | pest or weed control at 100 g/ha [1, 4] [%] | pest or weed control at 100 g/ha [3] [%] | pest or weed control at 100 g/ha ([1]; in Zea mays) [%] | chromatographic logP ([2]; log P) |
| --- | --- | --- | --- | --- | --- | --- |
| O=C(NCC(F)F)c1cc(Cl)cc(Cl)c1NC(=O)c1cc(Cn2nnc(C(F)(C(F)(F)F)C(F)(F)F)n2)nn1-c1ncccc1Cl [Example 396] | 3.89 | – | ≥ 80 | ≥ 80 | – | – |
| Cc1cc(C#N)cc(C(=O)NC2CCCC2)c1NC(=O)c1cc(Cn2nnc(C(F)(F)F)n2)nn1-c1ncccc1Cl [Example 399] | – | – | – | ≥ 80 | ≥ 80 | 3.37 |
| Cc1cc(C#N)cc(C(=O)NC2CCCCC2)c1NC(=O)c1cc(Cn2nnc(C(F)(F)F)n2)nn1-c1ncccc1Cl [Example 400] | – | – | – | ≥ 80 | ≥ 80 | 3.63 |
| Cc1cc(C#N)cc(C(=O)NC2CCCC2)c1NC(=O)c1cc(Cn2nnc(C(F)(F)F)n2)nn1-c1ccccc1Cl [Example 401] | – | 3.84 | ≥ 80 | ≥ 80 | – | – |
| Cc1cc(C#N)cc(C(=O)NC(C)(C)C)c1NC(=O)c1cc(C(C)n2nnc(C(F)(F)F)n2)nn1-c1ncccc1Cl (stereo not drawn) [Example 436] | – | – | – | ≥ 80 | ≥ 80 | 3.7 |
| Cc1cc(C#N)cc(C(=O)NC2CC2)c1NC(=O)c1cc(Cn2nnnc2C(F)F)nn1-c1ncccc1Cl [Example 468] | – | – | – | ≥ 80 | ≥ 80 | 2.12 |
| O=C(NC1CC1)c1cc(Cl)cc(Cl)c1NC(=O)c1cc(Cn2nnnc2C(F)F)nn1-c1ncccc1Cl [Example 469] | – | – | – | ≥ 80 | ≥ 80 | 2.44 |
| CNC(=O)c1cc(Cl)cc(C)c1NC(=O)c1cc(Cn2nnnc2C(F)(F)F)nn1-c1cc(Cl)ccc1Cl [Example 473] | – | 3.52 | ≥ 80 | ≥ 80 | – | – |

Further lines, with some results ahead:

| chromatographic logP ([2]; reversed-phase HPLC, Zorbax Eclipse C18 column, by HPLC according to EEC Directive 79/831 Annex V.A8, read-out: log P) | chromatographic logP [2, 5] | SMILES | pest or weed control at 100 g/ha [1, 4] [%] | pest or weed control at 100 g/ha [3] [%] | pest or weed control at 100 g/ha ([1]; in Zea mays) [%] | chromatographic logP ([2]; log P) |
| --- | --- | --- | --- | --- | --- | --- |
| – | 3.78 | CNC(=O)c1cc(Cl)cc(C)c1NC(=O)c1cc(Cn2nnc(C(F)(F)C(F)(F)F)n2)nn1-c1ccccc1Cl [Example 402] | ≥ 80 | ≥ 80 | – | – |
| – | 4.14 | Cc1cc(Cl)cc(C(=O)NC(C)(C)C)c1NC(=O)c1cc(Cn2nnc(C(F)(F)F)n2)nn1-c1ccccc1 [Example 403] | ≥ 80 | ≥ 80 | – | – |
| – | 3.19 | CNC(=O)c1cc(Cl)cc(C)c1NC(=O)c1cc(Cn2nnc(C(F)(F)F)n2)nn1-c1ccccc1 [Example 404] | ≥ 80 | ≥ 80 | – | – |
| – | 3.51 | CCNC(=O)c1cc(I)cc(C)c1NC(=O)c1cc(Cn2nnc(C(F)(F)F)n2)nn1-c1ncccc1Br [Example 408] | ≥ 80 | ≥ 80 | – | – |
| – | 3.77 | Cc1cc(I)cc(C(=O)NC(C)C)c1NC(=O)c1cc(Cn2nnc(C(F)(F)F)n2)nn1-c1ncccc1Br [Example 413] | ≥ 80 | ≥ 80 | – | – |
| – | 2.81 | CNC(=O)c1cc(C#N)cc(C)c1NC(=O)c1cc(Cn2nnc(C(F)(F)F)n2)nn1-c1ccccc1 [Example 431] | ≥ 80 | ≥ 80 | – | – |
| – | 3.17 | CCNC(=O)c1cc(Br)cc(C)c1NC(=O)c1cc(Cn2nnnc2C(F)(F)F)nn1-c1ncccc1C(F)(F)F [Example 453] | ≥ 80 | ≥ 80 | – | – |
| – | 3.31 | Cc1cc(I)cc(C(=O)NC2CC2)c1NC(=O)c1cc(Cn2nnnc2C(F)(F)F)nn1-c1ncccc1C(F)(F)F [Example 456] | ≥ 80 | ≥ 80 | – | – |
| – | 3.3 | CCNC(=O)c1cc(I)cc(C)c1NC(=O)c1cc(Cn2nnnc2C(F)(F)F)nn1-c1ncccc1C(F)(F)F [Example 457] | ≥ 80 | ≥ 80 | – | – |

Source: patent US8324390B2, “Tetrazole-substituted anthranilamides as pesticides” (Bayer CropScience AG, priority 2008, dated 2012)
